Laboratory results as given in ChEMBL document CHEMBL1124056, “Derivatives of the muscarinic agent N-methyl-N-(1-methyl-4-pyrrolidino-2-butynyl)acetamide” (J Med Chem, 1988).

How the values were obtained:
[1] = organism: Mus musculus; test: Dose required to double the dose of oxotremorine inducing a predetermined (grade 2) tremor intensity in mice; type: functional
[2] = biological target: Muscarinic acetylcholine receptor; test: Equilibrium dissociation constant muscarinic receptor complex, measured in guinea pig ileum; type: functional, tissue-based, Cavia porcellus
[3] = organism: Cavia porcellus; test: Maximum contractile response relative to that elicited by carbachol, in guinea pig ileum; type: functional
[4] = organism: Cavia porcellus; test: Equipotent molar ratio relative to that of carbachol, which equals 1, in guinea pig ileum; type: functional
[5] = organism: Cavia porcellus; test: Efficacy relative to that of carbachol, measured in guinea pig ileum; type: functional
[6] = organism: Cavia porcellus; test: Concentration that elicits 50% of its own maximum contractile response, in guinea pig ileum; type: functional
[7] = organism: Mus musculus; test: Dose required to double the dose of oxotremorine inducing a predetermined (grade 2) tremor intensity in mice; g=Agonist; type: functional, organism-based; details: filed as agonist

| Structure (SMILES) | Tremorolytic dose [1] | Kd [2] | Emax [3] | EPMR [4] | Relative efficacy [5] | EC50 [6] | Tremorolytic dose [7] |
| --- | --- | --- | --- | --- | --- | --- | --- |
| CS(=O)(=O)N(CC#CCN1CCCC1)S(C)(=O)=O | >200 µM/kg | 15.9 µM | – | – | – | – | – |
| CC(C#CCN(C)C)N(C)C(=O)C(F)(F)F (configuration not stated) | >200 µM/kg | 95.4 µM | <0.1 | – | – | – | – |
| CC(=O)N(C(C)=O)C(C)C#CC[N+](C)(C)C (configuration not stated) | – | 8.6 µM | 1.01 | 10.7 | 0.055 | 1200 nM | – |
| CN(C)CC#CCN1C(=O)CCC1=O | – | 208 µM | 1.01 | – | 0.35 | 2500 nM | Agonist |
| CC(C#CC[N+](C)(C)C)N(C)C(=O)C(F)(F)F (configuration not stated) | – | 91.9 µM | 0.89 | 214 | 0.026 | 27100 nM | – |
| CN(CC#CCN1CCCC1)S(C)(=O)=O | 174 µM/kg | 68 µM | – | – | – | – | – |
| CCN(CC)CC#CCN(C(C)=O)C(C)=O | 107 µM/kg | 7.2 µM | 0 | – | – | – | – |
| CC(=O)N(C)CC#CCN1CCCC1 | – | 2.2 µM | 1.01 | – | 0.15 | 69 nM | – |
| O=C1CCC(=O)N1CC#CCN1CCCC1 | 23 µM/kg | 5 µM | 0.98 | – | 0.027 | 1000 nM | – |
| CC(=O)N(CC#CCN(C)C)C(C)=O | >200 µM/kg | 65.6 µM | 0.84 | 320 | 0.013 | 38800 nM | – |
| CCN(CC)CC#CC(C)N(C(C)=O)C(C)=O (configuration not stated) | 39 µM/kg | 1.6 µM | 0 | – | – | – | – |
| CC(C#CCN1CCCC1)N1C(=O)CCC1=O (configuration not stated) | 1.2 µM/kg | 0.15 µM | – | – | – | – | – |
| C[N+](C)(C)CCOC(N)=O.[Cl-] [CARBACHOL] | – | – | 1 | 1 | – | 110 nM | – |
| CC(=O)N(CC#CCN1CCCC1)C(C)=O | 2.9 µM/kg | 0.44 µM | 0 | – | – | – | – |
| CC(=O)N(CC#CC[N+](C)(C)C)C(C)=O | – | 8.2 µM | 1 | 19.3 | 0.034 | 2000 nM | – |
| CC(=O)N(C(C)=O)C(C)C#CCN1CCCC1 (configuration not stated) | 3.2 µM/kg | 0.28 µM | 0 | – | – | – | – |
| CN(CC#CCN1CCCC1)C(=O)C(F)(F)F | 150 µM/kg | 15.6 µM | 0.16 | 145 | 0.003 | 16900 nM | – |
| CC(=O)N(C(C)C#CCN1CCCC1)S(C)(=O)=O (configuration not stated) | 99.7 µM/kg | 3.1 µM | – | – | – | – | – |
| CC(C#CCN1CCCC1)N(S(C)(=O)=O)S(C)(=O)=O (configuration not stated) | 157 µM/kg | 5.4 µM | – | – | – | – | – |
| CC(=O)N(C(C)=O)C(C)C#CCN(C)C (configuration not stated) | 109 µM/kg | 21.6 µM | 0.99 | 57.9 | 0.03 | 5500 nM | – |
| CC(=O)N(C)C(C)C#CCN1CCCC1 (configuration not stated) | 0.6 µM/kg | 0.24 µM | 0.83 | – | 0.013 | 190 nM | – |
| CC(=O)N(CC#CCN1CCCC1)S(C)(=O)=O | >200 µM/kg | 17.9 µM | – | – | – | – | – |
| CC(C#CCN1CCCC1)N(C)C(=O)C(F)(F)F (configuration not stated) | 21.4 µM/kg | 0.57 µM | 0 | – | – | – | – |
| CC(C#CCN1CCCC1)N(C)S(C)(=O)=O (configuration not stated) | 82 µM/kg | 13 µM | – | – | – | – | – |
